Measured values as given in article PMC6272622, “Phytochemical Profiling and Evaluation of Pharmacological Activities of Hypericum scabrum L” (Molecules, 2015).
Like-named read-outs stand apart in the source and are kept apart here.

Legend:
[1] = tested on: Escherichia coli ATCC 11229; assay: Antimicrobial activity, agar well diffusion method; assay type: cell-based; conditions: 37 °C, 24 h
Protocol: (§1) Antimicrobial activity of compounds 1 to 6 and crude extracts 7a, 8a, 9a; 10 to 13 were measured using the agar well diffusion method. Bacterial and fungal pathogens such as S. aureus (ATCC 6538), E. coli (ATCC 11229) and C. albicans (ATCC 10231) were used as indicator strains for this analysis. These microorganisms were aseptically inoculated into appropriate liquid media and incubated at 37 °C. After 16 h, the cells were centrifuged at 6000 rpm for 10 min and then suspended in sterile water. The different cells (1 mL) were added to appropriate agar media (100 mL) prior to plating, and the wells were made using an agar well borer. To these wells, different concentrations of compounds 1 to 6 and the extracts 7a, 8a, 9a; 10 to 13 were added and subsequently incubated at 37 °C for 24 h. Zones of inhibition were estimated by measuring the diameter of the microbial growth inhibition zones. Values were averaged from three independent experiments.

[2] = tested on: Staphylococcus aureus ATCC 6538; assay: Antimicrobial activity, agar well diffusion method; assay type: cell-based; conditions: 37 °C, 24 h
Protocol: as §1

[3] = DPPH radical scavenging assay; conditions: 37 °C, 30 min, 515 nm; for IC50: pure compounds, read-out: DPPH Scavenging Effects, IC50 Values
Protocol: Radical scavenging assay was determined by a micro plate spectrophotometric method based on the reduction of DPPH according to the previous report. Various dilutions of pure compounds and crude extracts in the concentration range 0.0625 to 1 mM and 0.0625 to 1 mg∙mL^−1, respectively were made. Briefly DPPH solution (100 μL) and pure compound or crude extract in DMSO (100 μL) were added to each well of the micro plate and mixed. The mixture was shaken vigorously and left to stand at 37 °C for 30 min in dark. The absorbance of the solution was then measured at wavelength 515 nm using a micro plate spectrophotometer. Inhibition (%) of free radical (DPPH) was determined as [(Acontrol − Asample)/Acontrol] × 100, where: Acontrol is the absorbance of the control sample containing all reagents except the test sample and Asample is the absorbance of the test sample (pure compound or crude extract). Vitamin C was used as the positive control and tests were carried out in triplicate. The IC50 values were determined for all tested flavonoids, extract and control standard antioxidant.

[4] = target: T1, Protein tyrosine phosphatase 1B (PTP-1B) (Homo sapiens, UniProt P18031); assay: Protein tyrosine phosphatase 1B (PTP-1B) inhibition assay with pNPP substrate; assay type: biochemical
T1 sequence (P18031 1-435): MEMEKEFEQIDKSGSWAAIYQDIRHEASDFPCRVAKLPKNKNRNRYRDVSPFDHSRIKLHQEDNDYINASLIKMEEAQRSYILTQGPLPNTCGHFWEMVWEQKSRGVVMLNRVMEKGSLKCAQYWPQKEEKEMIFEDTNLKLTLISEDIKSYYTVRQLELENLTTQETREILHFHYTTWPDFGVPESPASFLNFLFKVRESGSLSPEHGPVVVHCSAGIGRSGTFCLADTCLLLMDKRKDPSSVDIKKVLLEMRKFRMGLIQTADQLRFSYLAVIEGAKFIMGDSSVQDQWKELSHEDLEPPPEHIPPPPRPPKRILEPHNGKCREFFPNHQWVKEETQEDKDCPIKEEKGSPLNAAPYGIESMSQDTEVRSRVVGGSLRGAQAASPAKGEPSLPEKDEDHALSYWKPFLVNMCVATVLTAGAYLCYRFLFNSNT
Protocol: Compounds were pre-incubated with the enzyme at room temperature for 5 min. Then, 178 µL of buffer solution (20 mM HEPES, 150 mM NaCl, 1 mM EDTA) was added in 96-well plates. […] After that, 1 µL of test and positive control sample were added. Thereafter, 20 µL of the substrate pNPP (35 mM) was added and mixed for 10 min. The plate was incubated in the dark for 30 min and the reaction was terminated by adding 10 µL of 3 M NaOH. The absorbance was then determined at 405 nm wavelength. […] Inhibition (%) = [(OD405 − OD405 blank)/OD405 blank] × 100. IC50 was calculated from the percentage inhibition values.

[5] = tested on: Candida albicans ATCC 10231; assay: Antimicrobial activity, agar well diffusion method; assay type: cell-based; conditions: 37 °C, 24 h
Protocol: as §1

[6] = pNPP substrate, absorbance at 405 nm

Structure (SMILES)	Inhibition Zone Diameter EC [1]	Inhibition Zone Diameter SA [2]	IC50 [3] [µM]	IC50 [4, 6] [µM]	Inhibition Zone Diameter CA [5]	DPPH Scavenging Effects; IC50 Values ([3]; crude extracts) [µg/mL]	IC50 [4] [µM]
CC1(C)S[C@@H]2[C@H](NC(=O)[C@H](N)c3ccccc3)C(=O)N2[C@H]1C(=O)O [Ampicillin, reference compound]	14 mm	19 mm	–	–	–	–	–
O=c1c(O[C@@H]2O[C@H](CO)[C@H](O)[C@H](O)[C@H]2O)c(-c2ccc(O)c(O)c2)oc2cc(O)cc(O)c12 [Compound 6, Quercetin-3-O-β-D-galactopyranoside]	6.5 mm	11 mm	29.5 ± 1.5	> 50	n.e.	–	–
O=c1c(O[C@@H]2O[C@@H](CO)[C@H](O)[C@H]2O)c(-c2ccc(O)c(O)c2)oc2cc(O)cc(O)c12 [Compound 3, Quercetin-3-O-α-L-arabinofuranoside]	5.5 mm	n.e.	38.3 ± 2	> 50	n.e.	–	–
O=c1c(O[C@@H]2O[C@H](CO)[C@@H](O)[C@H](O)[C@H]2O)c(-c2ccc(O)c(O)c2)oc2cc(O)cc(O)c12 [Compound 5, Quercetin-3-O-β-D-glucopyranoside]	n.e.	11 mm	24.8 ± 1.3	> 50	n.e.	–	–
O=C1O[C@H]([C@@H](O)CO)C(O)=C1O [Vitamin C, reference compound]	–	–	30.3 ± 2.4	–	–	5.34 ± 0.4	–
C[C@@H]1O[C@@H](Oc2c(-c3ccc(O)c(O)c3)oc3cc(O)cc(O)c3c2=O)[C@H](O)[C@H](O)[C@H]1O [Compound 4, Quercetin-3-O-α-L-rhamnoside]	8 mm	n.e.	32.1 ± 1.6	–	5.5 mm	–	> 50
C[C@@H]1[C@H](O)[C@@H](C)/C=C/C=C/C=C/C=C/C=C/C=C/C=C/[C@H](O[C@@H]2O[C@H](C)[C@@H](O)[C@H](N)[C@@H]2O)C[C@@H]2O[C@](O)(C[C@@H](O)C[C@@H](O)[C@H](O)CC[C@@H](O)C[C@@H](O)CC(=O)O[C@H]1C)C[C@H](O)[C@H]2C(=O)O [Amphotericin B, reference compound]	–	–	–	–	15 mm	–	–
O=c1c(-c2c(O)cc(O)c3c(=O)cc(-c4ccc(O)cc4)oc23)c(-c2ccc(O)cc2)oc2cc(O)cc(O)c12 [Compound 1, 3-8′′-Bisapigenin]	n.e.	5.5 mm	> 500	> 50	n.e.	–	–
O=c1c(O)c(-c2ccc(O)c(O)c2)oc2cc(O)cc(O)c12 [Compound 2, Quercetin]	n.e.	12 mm	24.9 ± 1.4	–	6.5 mm	–	–
